Columns and labels:
[1] = system: 3D EpiDerm skin models (SIT 200 skin irritation model); assay: in vitro skin irritation assay, IL-1α release by ELISA; assay type: cell-based
Description: To measure skin irritation, in vitro experiments are conducted using 3D EpiDerm skin models (SIT 200 skin irritation model, MatTek Corporation, Ashland, MA 01721). The irritation assay measures IL-la protein released by the cells to the media to evaluate the level of skin irritation and inflammation. In vitro skin samples are treated topically with 30 μl of test compounds (taurine (1% by weight) or taurine-L-arginine-glycine complex (1% by weight) of 2:1:1 (a mixture of 0.5% taurine, 0.25% L-arginine and 0.25% glycine, by weight) for 1 hour in tissue culture incubator. To induce irritation, cells are co-treated with 0.05% SDS and the test compounds. Following the incubation, skin samples are washed with PBS and placed in a culture medium and incubated for 24 hours. Cell culture media are collected for IL-la release assay. IL-la release is analyzed by ELISA assay kit (R&D Systems, Minneapolis, MN 55413). The greater IL-la release, the greater the irritation potential. […] Samples 1-6 are evaluated in the in vitro irritation assay as described above in Example 2.

HaCaT cells = assay: in vitro migration assay (scratch gap closure) for barrier repair; assay type: cell-based, human; details: 24 hours incubation, taurine 0.0005% alone or with L-arginine 0.0001% and glycine 0.0001% (Example 1)
Description: To determine barrier repair function of taurine combined with L-arginine and glycine, in vitro experiments are conducted using HaCaT cells. HaCaT cells are spontaneously transformed aneuploid immortal keratinocyte cell line from adult human skin and are grown until 100% confluent. After that, each well is scratched with 1000 μl tip to create the gap and washed with 1 ml of PBS twice to eliminate dead floating cells. Following that, cells are treated with 1 ml of culture media for control (untreated), Taurine (0.0005% by weight), and amino acid complex of taurine (0.0005% by weight) combined with L-arginine (0.0001% by weight) and glycine (0.0001% by weight). Then, initial measurements of gap distance are taken using microscope (OLYMPUS IX71). Next, the treated cells are incubated for 24 hours and measurements are taken again.
The migration assay measures cell migration in order to evaluate the barrier repair.

| SMILES | IL-1α release (% of control) ([1]; 0.05% SDS alone (Example 2)) | IL-1α release (% of control) ([1]; 0.05% SDS alone (Example 4)) | increase of IL-1α release ([1]; 0.05% SDS alone vs untreated (Example 2)) [%] | Cell migration in 24hr (% of control) (HaCaT cells) | IL-1α release (% of control) ([1]; 1% test compound co-treated with 0.05% SDS (Example 4)) | IL-1α release (% of control) ([1]; 30 μl of 1% test compound co-treated with 0.05% SDS for 1 hour, then 24 hours in medium (Example 2)) |
| --- | --- | --- | --- | --- | --- | --- |
| CCCCCCCCCCCCOS(=O)(=O)[O-].[Na+] [SDS, sodium dodecyl sulfate] | 120 % of control | 140 % of control | 20 |  |  |  |
| NCCS(=O)(=O)O [taurine, 2-aminoethanesulfonic acid] |  |  |  | 66 % of control | 114 % of control | 70 % of control |
